Measurements as given in patent US10206399B2, “Herbicidal composition comprising uracil compound as active ingredient” (Dongbu Farm Hannong Co., Ltd., priority 2012, dated 2019).
Read-outs that look alike come from different tables or passages of the source.

Assays:
Echinochloa crus = settings: for Echinochloa crus mortality, measured value: 20 days after treatment; for plant mortality, measured value: Echinochloa crus
Source text: (§1) X is % damage by uracil compound (a) of formula 1 at the rate of application of p kg/ha; Y is % damage by conventional herbicidal compound (b) at the rate of application of q kg/ha; and E is the expected damage caused by compounds (a) and (b) at a rate of application of p and q kg/ha.
(§2) The expected activity for a given combination of two herbicides can be calculated using equation 1 above.

Digitaria sanguinalis = settings: for Digitaria sanguinalis mortality, measured value: 20 days after treatment; for plant mortality, measured value: Digitaria sanguinalis
Source text: as §1, §2

Abutilon theophrasti = experiment: whole plant or invertebrate; settings: for pest or weed control at 25 g/ha: read-out: Data (measured value) Abutilon theophrasti, 25 g/ha
Source text: as §1, §2

Aeschynomene indica = experiment: whole plant or invertebrate; settings: for pest or weed control at 25 g/ha: read-out: Data (measured value) Aeschynomene indica, 25 g/ha
Source text: as §1, §2

Xanthium spinosum = experiment: whole plant or invertebrate; settings: for pest or weed control at 25 g/ha: read-out: Data (measured value) Xanthium spinosum, 25 g/ha
Source text: as §1, §2

[1] = read-out: Data (measured value) Abutilon theophrasti, 50 g/ha
[2] = read-out: Data (measured value) Abutilon theophrasti, 100 g/ha
[3] = read-out: Data (measured value) Aeschynomene indica, 50 g/ha
[4] = read-out: Data (measured value) Aeschynomene indica, 100 g/ha
[5] = read-out: Data (measured value) Xanthium spinosum, 50 g/ha
[6] = read-out: Data (measured value) Xanthium spinosum, 100 g/ha
[7] = 480 h, read-out: Abutilon theophrasti mortality, measured value
[8] = 480 h, read-out: Aeschynomene indica mortality, measured value
[9] = 480 h, read-out: Xanthium spinosum mortality, measured value
[10] = read-out: plant mortality, measured value, 50 g/ha
[11] = read-out: plant mortality, measured value, 100 g/ha
[12] = read-out: plant mortality, measured value, 200 g/ha

O=C(O)COc1nc(Cl)c(Cl)cc1Cl [Triclopyr]
Data (measured value) Echinochloa crus (Echinochloa crus; 125 g/ha): 0
Data (measured value) Echinochloa crus (Echinochloa crus; 250 g/ha): 0
Data (measured value) Echinochloa crus (Echinochloa crus; 500 g/ha): 0
Data (measured value) Digitaria sanguinalis (Digitaria sanguinalis; 125 g/ha): 0
Data (measured value) Digitaria sanguinalis (Digitaria sanguinalis; 250 g/ha): 0
Data (measured value) Digitaria sanguinalis (Digitaria sanguinalis; 500 g/ha): 0
pest or weed control at 125 g/ha (Abutilon theophrasti; read-out: Data (measured value) Abutilon theophrasti, 125 g/ha): 11%
pest or weed control at 250 g/ha (Abutilon theophrasti; read-out: Data (measured value) Abutilon theophrasti, 250 g/ha): 23%
pest or weed control at 500 g/ha (Abutilon theophrasti; read-out: Data (measured value) Abutilon theophrasti, 500 g/ha): 54%
pest or weed control at 125 g/ha (Aeschynomene indica; read-out: Data (measured value) Aeschynomene indica, 125 g/ha): 9%
pest or weed control at 250 g/ha (Aeschynomene indica; read-out: Data (measured value) Aeschynomene indica, 250 g/ha): 26%
pest or weed control at 500 g/ha (Aeschynomene indica; read-out: Data (measured value) Aeschynomene indica, 500 g/ha): 58%
pest or weed control at 125 g/ha (Xanthium spinosum; read-out: Data (measured value) Xanthium spinosum, 125 g/ha): 13%
pest or weed control at 250 g/ha (Xanthium spinosum; read-out: Data (measured value) Xanthium spinosum, 250 g/ha): 30%
pest or weed control at 500 g/ha (Xanthium spinosum; read-out: Data (measured value) Xanthium spinosum, 500 g/ha): 59%

CCO/N=C(\CC)C1=C(O)CC(c2c(C)cc(C)cc2C)CC1=O (stereo not drawn) [Tralkoxydim]
Data (measured value) Echinochloa crus (Echinochloa crus; 25 g/ha): 10
Data (measured value) Echinochloa crus (Echinochloa crus; 50 g/ha): 24
Data (measured value) Echinochloa crus (Echinochloa crus; 100 g/ha): 56
Data (measured value) Digitaria sanguinalis (Digitaria sanguinalis; 25 g/ha): 8
Data (measured value) Digitaria sanguinalis (Digitaria sanguinalis; 50 g/ha): 21
Data (measured value) Digitaria sanguinalis (Digitaria sanguinalis; 100 g/ha): 47
pest or weed control at 25 g/ha (Abutilon theophrasti): 0%
pest or weed control at 50 g/ha (Abutilon theophrasti; [1]): 0%
pest or weed control at 100 g/ha (Abutilon theophrasti; [2]): 0%
pest or weed control at 25 g/ha (Aeschynomene indica): 0%
pest or weed control at 50 g/ha (Aeschynomene indica; [3]): 0%
pest or weed control at 100 g/ha (Aeschynomene indica; [4]): 0%
pest or weed control at 25 g/ha (Xanthium spinosum): 0%
pest or weed control at 50 g/ha (Xanthium spinosum; [5]): 0%
pest or weed control at 100 g/ha (Xanthium spinosum; [6]): 0%

CC(Oc1ccc(Oc2ncc(C(F)(F)F)cc2Cl)cc1)C(=O)O (stereo not drawn) [Haloxyfop, reference compound]
Echinochloa crus mortality, measured value (Echinochloa crus; 12.5 g/ha): 11%
Echinochloa crus mortality, measured value (Echinochloa crus; 25 g/ha): 28%
Echinochloa crus mortality, measured value (Echinochloa crus; 50 g/ha): 58%
Digitaria sanguinalis mortality, measured value (Digitaria sanguinalis; 12.5 g/ha): 14%
Digitaria sanguinalis mortality, measured value (Digitaria sanguinalis; 25 g/ha): 29%
Digitaria sanguinalis mortality, measured value (Digitaria sanguinalis; 50 g/ha): 57%
mortality at 12.5 g/ha (Abutilon theophrasti; [7]): 0%
mortality at 25 g/ha (Abutilon theophrasti; [7]): 0%
mortality at 50 g/ha (Abutilon theophrasti; [7]): 0%
mortality at 12.5 g/ha (Aeschynomene indica; [8]): 0%
mortality at 25 g/ha (Aeschynomene indica; [8]): 0%
mortality at 50 g/ha (Aeschynomene indica; [8]): 0%
mortality at 12.5 g/ha (Xanthium spinosum; [9]): 0%
mortality at 25 g/ha (Xanthium spinosum; [9]): 0%
mortality at 50 g/ha (Xanthium spinosum; [9]): 0%

CCc1cnc(C2=NC(C)(C(C)C)C(=O)N2)c(C(=O)O)c1 (stereo not drawn) [Imazethapyr]
Data (measured value) Echinochloa crus (Echinochloa crus; 25 g/ha): 11
Data (measured value) Echinochloa crus (Echinochloa crus; 50 g/ha): 26
Data (measured value) Echinochloa crus (Echinochloa crus; 100 g/ha): 53
Data (measured value) Digitaria sanguinalis (Digitaria sanguinalis; 25 g/ha): 11
Data (measured value) Digitaria sanguinalis (Digitaria sanguinalis; 50 g/ha): 26
Data (measured value) Digitaria sanguinalis (Digitaria sanguinalis; 100 g/ha): 62
pest or weed control at 25 g/ha (Abutilon theophrasti): 9%
pest or weed control at 50 g/ha (Abutilon theophrasti; [1]): 24%
pest or weed control at 100 g/ha (Abutilon theophrasti; [2]): 58%
pest or weed control at 25 g/ha (Aeschynomene indica): 11%
pest or weed control at 50 g/ha (Aeschynomene indica; [3]): 25%
pest or weed control at 100 g/ha (Aeschynomene indica; [4]): 54%
pest or weed control at 25 g/ha (Xanthium spinosum): 9%
pest or weed control at 50 g/ha (Xanthium spinosum; [5]): 20%
pest or weed control at 100 g/ha (Xanthium spinosum; [6]): 47%

O=C(O)c1c(Cl)ccc2cc(Cl)cnc12 [Quinclorac]
plant mortality, measured value (Echinochloa crus; 50 g/ha): 13
plant mortality, measured value (Echinochloa crus; 100 g/ha): 26
plant mortality, measured value (Echinochloa crus; 200 g/ha): 55
plant mortality, measured value (Digitaria sanguinalis; 50 g/ha): 6
plant mortality, measured value (Digitaria sanguinalis; 100 g/ha): 21
plant mortality, measured value (Digitaria sanguinalis; 200 g/ha): 49
pest or weed control at 50 g/ha (Abutilon theophrasti; [10]): 9%
pest or weed control at 100 g/ha (Abutilon theophrasti; [11]): 26%
pest or weed control at 200 g/ha (Abutilon theophrasti; [12]): 57%
pest or weed control at 50 g/ha (Aeschynomene indica; [10]): 10%
pest or weed control at 100 g/ha (Aeschynomene indica; [11]): 27%
pest or weed control at 200 g/ha (Aeschynomene indica; [12]): 57%
pest or weed control at 50 g/ha (Xanthium spinosum; [10]): 11%
pest or weed control at 100 g/ha (Xanthium spinosum; [11]): 29%
pest or weed control at 200 g/ha (Xanthium spinosum; [12]): 62%
